{
  "source": "patent US11865098B1",
  "about": "“Methods and compositions for treating excessive sleepiness” (Axsome Malta Ltd., priority 2017, dated 2024)",
  "tested_on": "patients with narcolepsy type 1 or type 2",
  "test": "MWT, 12-week phase 3 study in narcolepsy",
  "format": "in vivo, human",
  "details": "mITT",
  "procedure": "The MWT is an objective test used to measure how alert a subject is during the day. The test consists of four sleep trials with two hours in between the trials. The first trial is performed 1.5-3 hours after the subject's normal wake-up time. Sensors are placed on the head, face, and chin to detect when the subject is asleep and awake during the test. The subject sits quietly in bed with his or her back and head supported by a pillow and is asked to sit still and look straight ahead while trying to stay awake as long as possible. Each trial lasts 40 minutes or until the subject is asleep for 90 seconds. Between trials, the subject stays out of bed and occupies himself or herself to remain awake. Falling asleep in an average of less than eight minutes is considered abnormal. About 40-60% of subjects with normal sleep stay awake for the entire 40 minutes of all four trials.\nThe study was a 12-week, double-blind, randomized, placebo-controlled, parallel-group study. Patients were randomized (1:1:1:1) to receive placebo or APC 75, 150, or 300 mg; randomization was stratified by the presence or absence of cataplexy.\nKey inclusion criteria included adults 18-75 years old, inclusive, with a diagnosis of narcolepsy type 1 or type 2 according to ICSD-3 (American Academy of Sleep Medicine. The International Classification of Sleep Disorders—Third Edition (ICSD-3). Darien, IL: American Academy of Sleep Medicine; 2014) or DSM-5 (American Psychiatric Association. Diagnostic and Statistical Manual of Mental Disorders Fifth Edition (DSM-5). Arlington, VA: American Psychiatric Association; 2013) criteria, baseline mean sleep latency <25 minutes on the first 4 trials of a 5-trial, 40-minute Maintenance of Wakefulness Test (MWT) and baseline Epworth Sleepiness Scale (ESS) (Johns, Sleep 14(6):540 (1991)) score ≥10, usual nightly total sleep time ≥6 hours, and body mass index between 18 and 45 kg/m^2.\nCo-primary endpoints were change from baseline to week 12 in MWT mean sleep latency and ESS score. The key secondary endpoint was the percentage of patients who reported improvement on the Patient Global Impression of Change (PGI-C) (Guy, ECDEU assessment manual for psychopharmacology, revised. US Department of Health, Education, and Welfare publication (ADM 76-338). Rockville, MD: National Institute of Mental Health; 1976) at week 12. Other secondary and exploratory endpoints included changes on function and quality-of-life and changes in the number of cataplexy attacks per week. Safety evaluation included adverse events, laboratory tests, and vital signs.\nEfficacy analyses were based on the modified intent-to-treat population (mITT), defined as all patients who were randomized, received at least 1 dose of study drug, and had baseline and at least 1 post-baseline evaluation of both MWT and ESS. MWT and ESS were analyzed using a mixed-effect repeated measures (MMRM) model. PGI-C was analyzed using a chi-square test. A fixed hierarchical testing procedure was used to correct for multiplicity, starting with the highest dose of APC for the co-primary endpoints and the key secondary endpoint; testing proceeded with each subsequent lower doses.",
  "data": [
    {"compound": "NC(=O)OC[C@H](N)Cc1ccccc1", "note": "[JZP-110, (R)-2-amino-3-phenylpropyl carbamate]", "values": [
      {"measurement": "MWT mean sleep latency increase from baseline >=5 minutes, % of subjects", "setting": "75 mg, Week 1", "result": "(34.5) %"},
      {"measurement": "MWT mean sleep latency increase from baseline >=5 minutes, n subjects", "setting": "75 mg, Week 1", "result": 10},
      {"measurement": "MWT mean sleep latency increase from baseline >=10 minutes, % of subjects", "setting": "75 mg, Week 1", "result": "(24.1) %"},
      {"measurement": "MWT mean sleep latency increase from baseline >=10 minutes, n subjects", "setting": "75 mg, Week 1", "result": 7},
      {"measurement": "MWT mean sleep latency increase from baseline >=15 minutes, % of subjects", "setting": "75 mg, Week 1", "result": "(17.2) %"},
      {"measurement": "MWT mean sleep latency increase from baseline >=15 minutes, n subjects", "setting": "75 mg, Week 1", "result": 5},
      {"measurement": "MWT mean sleep latency increase from baseline >=20 minutes, % of subjects", "setting": "75 mg, Week 1", "result": "(10.3) %"},
      {"measurement": "MWT mean sleep latency increase from baseline >=20 minutes, n subjects", "setting": "75 mg, Week 1", "result": 3},
      {"measurement": "MWT mean sleep latency increase from baseline >=25 minutes, % of subjects", "setting": "75 mg, Week 1", "result": "(3.4) %"},
      {"measurement": "MWT mean sleep latency increase from baseline >=25 minutes, n subjects", "setting": "75 mg, Week 1", "result": 1},
      {"measurement": "MWT mean sleep latency increase from baseline >=30 minutes, n subjects", "setting": "75 mg, Week 1", "result": 0},
      {"measurement": "MWT mean sleep latency increase from baseline >=5 minutes, % of subjects", "setting": "75 mg, Week 4", "result": "(42.0) %"},
      {"measurement": "MWT mean sleep latency increase from baseline >=5 minutes, n subjects", "setting": "75 mg, Week 4", "result": 21},
      {"measurement": "MWT mean sleep latency increase from baseline >=10 minutes, % of subjects", "setting": "75 mg, Week 4", "result": "(24.0) %"},
      {"measurement": "MWT mean sleep latency increase from baseline >=10 minutes, n subjects", "setting": "75 mg, Week 4", "result": 12},
      {"measurement": "MWT mean sleep latency increase from baseline >=15 minutes, % of subjects", "setting": "75 mg, Week 4", "result": "(12.0) %"},
      {"measurement": "MWT mean sleep latency increase from baseline >=15 minutes, n subjects", "setting": "75 mg, Week 4", "result": 6},
      {"measurement": "MWT mean sleep latency increase from baseline >=20 minutes, % of subjects", "setting": "75 mg, Week 4", "result": "(6.0) %"},
      {"measurement": "MWT mean sleep latency increase from baseline >=20 minutes, n subjects", "setting": "75 mg, Week 4", "result": 3},
      {"measurement": "MWT mean sleep latency increase from baseline >=25 minutes, n subjects", "setting": "75 mg, Week 4", "result": 0},
      {"measurement": "MWT mean sleep latency increase from baseline >=30 minutes, n subjects", "setting": "75 mg, Week 4", "result": 0},
      {"measurement": "MWT mean sleep latency increase from baseline >=5 minutes, % of subjects", "setting": "75 mg, Week 12", "result": "(41.3) %"},
      {"measurement": "MWT mean sleep latency increase from baseline >=5 minutes, n subjects", "setting": "75 mg, Week 12", "result": 19},
      {"measurement": "MWT mean sleep latency increase from baseline >=10 minutes, % of subjects", "setting": "75 mg, Week 12", "result": "(19.6) %"},
      {"measurement": "MWT mean sleep latency increase from baseline >=10 minutes, n subjects", "setting": "75 mg, Week 12", "result": 9},
      {"measurement": "MWT mean sleep latency increase from baseline >=15 minutes, % of subjects", "setting": "75 mg, Week 12", "result": "(15.2) %"},
      {"measurement": "MWT mean sleep latency increase from baseline >=15 minutes, n subjects", "setting": "75 mg, Week 12", "result": 7},
      {"measurement": "MWT mean sleep latency increase from baseline >=20 minutes, % of subjects", "setting": "75 mg, Week 12", "result": "(8.7) %"},
      {"measurement": "MWT mean sleep latency increase from baseline >=20 minutes, n subjects", "setting": "75 mg, Week 12", "result": 4},
      {"measurement": "MWT mean sleep latency increase from baseline >=25 minutes, % of subjects", "setting": "75 mg, Week 12", "result": "(2.2) %"},
      {"measurement": "MWT mean sleep latency increase from baseline >=25 minutes, n subjects", "setting": "75 mg, Week 12", "result": 1},
      {"measurement": "MWT mean sleep latency increase from baseline >=30 minutes, n subjects", "setting": "75 mg, Week 12", "result": 0},
      {"measurement": "MWT mean sleep latency increase from baseline >=5 minutes, % of subjects", "setting": "150 mg, Week 1", "result": "(68.2) %"},
      {"measurement": "MWT mean sleep latency increase from baseline >=5 minutes, n subjects", "setting": "150 mg, Week 1", "result": 15},
      {"measurement": "MWT mean sleep latency increase from baseline >=10 minutes, % of subjects", "setting": "150 mg, Week 1", "result": "(50.0) %"},
      {"measurement": "MWT mean sleep latency increase from baseline >=10 minutes, n subjects", "setting": "150 mg, Week 1", "result": 11},
      {"measurement": "MWT mean sleep latency increase from baseline >=15 minutes, % of subjects", "setting": "150 mg, Week 1", "result": "(22.7) %"},
      {"measurement": "MWT mean sleep latency increase from baseline >=15 minutes, n subjects", "setting": "150 mg, Week 1", "result": 5},
      {"measurement": "MWT mean sleep latency increase from baseline >=20 minutes, % of subjects", "setting": "150 mg, Week 1", "result": "(9.1) %"},
      {"measurement": "MWT mean sleep latency increase from baseline >=20 minutes, n subjects", "setting": "150 mg, Week 1", "result": 2},
      {"measurement": "MWT mean sleep latency increase from baseline >=25 minutes, n subjects", "setting": "150 mg, Week 1", "result": 0},
      {"measurement": "MWT mean sleep latency increase from baseline >=30 minutes, n subjects", "setting": "150 mg, Week 1", "result": 0},
      {"measurement": "MWT mean sleep latency increase from baseline >=5 minutes, % of subjects", "setting": "150 mg, Week 4", "result": "(61.2) %"},
      {"measurement": "MWT mean sleep latency increase from baseline >=5 minutes, n subjects", "setting": "150 mg, Week 4", "result": 30},
      {"measurement": "MWT mean sleep latency increase from baseline >=10 minutes, % of subjects", "setting": "150 mg, Week 4", "result": "(42.9) %"},
      {"measurement": "MWT mean sleep latency increase from baseline >=10 minutes, n subjects", "setting": "150 mg, Week 4", "result": 21},
      {"measurement": "MWT mean sleep latency increase from baseline >=15 minutes, % of subjects", "setting": "150 mg, Week 4", "result": "(30.6) %"},
      {"measurement": "MWT mean sleep latency increase from baseline >=15 minutes, n subjects", "setting": "150 mg, Week 4", "result": 15},
      {"measurement": "MWT mean sleep latency increase from baseline >=20 minutes, % of subjects", "setting": "150 mg, Week 4", "result": "(16.3) %"},
      {"measurement": "MWT mean sleep latency increase from baseline >=20 minutes, n subjects", "setting": "150 mg, Week 4", "result": 8},
      {"measurement": "MWT mean sleep latency increase from baseline >=25 minutes, % of subjects", "setting": "150 mg, Week 4", "result": "(10.2) %"},
      {"measurement": "MWT mean sleep latency increase from baseline >=25 minutes, n subjects", "setting": "150 mg, Week 4", "result": 5},
      {"measurement": "MWT mean sleep latency increase from baseline >=30 minutes, n subjects", "setting": "150 mg, Week 4", "result": 0},
      {"measurement": "MWT mean sleep latency increase from baseline >=5 minutes, % of subjects", "setting": "150 mg, Week 12", "result": "(58.0) %"},
      {"measurement": "MWT mean sleep latency increase from baseline >=5 minutes, n subjects", "setting": "150 mg, Week 12", "result": 29},
      {"measurement": "MWT mean sleep latency increase from baseline >=10 minutes, % of subjects", "setting": "150 mg, Week 12", "result": "(48.0) %"},
      {"measurement": "MWT mean sleep latency increase from baseline >=10 minutes, n subjects", "setting": "150 mg, Week 12", "result": 24},
      {"measurement": "MWT mean sleep latency increase from baseline >=15 minutes, % of subjects", "setting": "150 mg, Week 12", "result": "(36.0) %"},
      {"measurement": "MWT mean sleep latency increase from baseline >=15 minutes, n subjects", "setting": "150 mg, Week 12", "result": 18},
      {"measurement": "MWT mean sleep latency increase from baseline >=20 minutes, % of subjects", "setting": "150 mg, Week 12", "result": "(18.0) %"},
      {"measurement": "MWT mean sleep latency increase from baseline >=20 minutes, n subjects", "setting": "150 mg, Week 12", "result": 9},
      {"measurement": "MWT mean sleep latency increase from baseline >=25 minutes, % of subjects", "setting": "150 mg, Week 12", "result": "(8.0) %"},
      {"measurement": "MWT mean sleep latency increase from baseline >=25 minutes, n subjects", "setting": "150 mg, Week 12", "result": 4},
      {"measurement": "MWT mean sleep latency increase from baseline >=30 minutes, % of subjects", "setting": "150 mg, Week 12", "result": "(2.0) %"},
      {"measurement": "MWT mean sleep latency increase from baseline >=30 minutes, n subjects", "setting": "150 mg, Week 12", "result": 1},
      {"measurement": "MWT mean sleep latency increase from baseline >=5 minutes, % of subjects", "setting": "300 mg, Week 1", "result": "(64.0) %"},
      {"measurement": "MWT mean sleep latency increase from baseline >=5 minutes, n subjects", "setting": "300 mg, Week 1", "result": 16},
      {"measurement": "MWT mean sleep latency increase from baseline >=10 minutes, % of subjects", "setting": "300 mg, Week 1", "result": "(56.0) %"},
      {"measurement": "MWT mean sleep latency increase from baseline >=10 minutes, n subjects", "setting": "300 mg, Week 1", "result": 14},
      {"measurement": "MWT mean sleep latency increase from baseline >=15 minutes, % of subjects", "setting": "300 mg, Week 1", "result": "(44.0) %"}
    ]}
  ]
}
